Reference: the NIST ThermoML archive (doi:10.1016/j.jct.2017.06.014)
± gives the expanded uncertainty stated by the source.

Conditions: Liquid, Ebulliometric method (Recirculating still)

Row | Structure (SMILES) | vapor or sublimation pressure (370.35 K) | vapor or sublimation pressure (373.15 K)
1 | CCCO [propan-1-ol] | 101.3 ± 1.1 kPa | –
2 | O [water] | – | 101.3 ± 1.1 kPa
